# Molecular target: T1, Zinc finger protein mex-5 (Caenorhabditis elegans, UniProt Q9XUB2)
# T1 sequence (Q9XUB2 whole entry): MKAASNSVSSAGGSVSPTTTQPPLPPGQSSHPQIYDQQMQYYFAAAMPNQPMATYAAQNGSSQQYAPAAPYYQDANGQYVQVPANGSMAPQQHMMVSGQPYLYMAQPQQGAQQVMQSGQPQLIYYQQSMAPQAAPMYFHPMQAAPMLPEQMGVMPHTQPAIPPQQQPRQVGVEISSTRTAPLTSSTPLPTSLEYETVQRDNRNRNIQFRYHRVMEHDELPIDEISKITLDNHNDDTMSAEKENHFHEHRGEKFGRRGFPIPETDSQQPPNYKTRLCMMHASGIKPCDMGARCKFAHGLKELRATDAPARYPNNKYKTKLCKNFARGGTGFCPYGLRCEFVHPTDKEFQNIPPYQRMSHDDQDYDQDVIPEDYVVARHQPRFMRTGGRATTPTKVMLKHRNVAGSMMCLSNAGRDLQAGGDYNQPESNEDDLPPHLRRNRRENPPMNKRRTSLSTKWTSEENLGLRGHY
# Experiment: MEX-5/TCR-2 RNA interaction inhibitors, dose response, biochemical, C. elegans, fluorescence polarization (AID 1960)
row,SMILES,EC50 [µM]
1,COc1cc(C2c3c(-c4cccnc4)n[nH]c3OC(=N)C2C#N)cc(Br)c1O (stereo not drawn),> 300
2,"CCCCN1C(=O)NC(=O)C(=CNNC(=O)c2ccncc2)C1=O [Isonicotinic acid N'-[1-butyl-2,4,6-trioxo-tetrahydro-pyrimidin-(5E)-ylidenemethyl]-hydrazide]",> 300
3,"CC1(C)CC(=O)C2=C(C1)OC(=N)C(C#N)C2c1ccccc1 (stereo not drawn) [2-amino-5-keto-7,7-dimethyl-4-phenyl-6,8-dihydro-4H-chromene-3-carbonitrile]",> 300
4,"O=C1NC(=O)N(CCc2ccccc2)C(=O)C1=CNNC(=O)c1ccccc1O [2-hydroxy-N'-[(E)-[2,4,6-trioxo-1-(2-phenylethyl)-1,3-diazinan-5-ylidene]methyl]benzohydrazide]",201
5,"CCCSc1nnc(N2C(=O)C(=O)C(C(=O)c3ccco3)C2c2ccccc2F)s1 (stereo not drawn) [2-(2-fluorophenyl)-3-(furan-2-carbonyl)-4-hydroxy-1-(5-propylsulfanyl-1,3,4-thiadiazol-2-yl)-2H-pyrrol-5-one]",> 300
6,"O=C(NN=Cc1c(O)n(-c2ccccc2)c(=S)[nH]c1=O)c1ccc(O)cc1 [N'-[(1Z)-(4,6-dioxo-1-phenyl-2-thioxohexahydropyrimidin-5-yl)methylene]-4-hydroxybenzohydrazide]",63.7
7,"COC(=O)c1[nH]c2cc(OC)c(OC)cc2c1CN=Nc1ccccc1 [methyl (3Z)-5,6-dimethoxy-3-[(2-phenylhydrazinyl)methylidene]indole-2-carboxylate]",20.3
8,Cc1ccc2c(c1)=C(NNc1ccccc1C)C(=O)N=2,> 300
9,"CC1(C)CC(=O)C2Sc3ccccc3N=C2C1 (stereo not drawn) [2,2-Dimethyl-2,3-dihydro-1H,10H-phenothiazin-4-one]",59.3
10,"C=CCOc1cccc(C2C(C(=O)c3cc4ccccc4o3)C(=O)C(=O)N2c2cc(C)on2)c1 (stereo not drawn) [3-(1-benzofuran-2-carbonyl)-4-hydroxy-1-(5-methyl-1,2-oxazol-3-yl)-2-(3-prop-2-enoxyphenyl)-2H-pyrrol-5-one]",80.5
11,COc1cc(C2C3=C(CC(C)(C)CC3=O)OC(=N)C2C#N)cc2c1OCO2 (stereo not drawn),> 300
12,"COc1ccc(OC)c(C2C(C(=O)c3ccco3)C(=O)C(=O)N2CCN2CCOCC2)c1 (stereo not drawn) [2-(2,5-dimethoxyphenyl)-3-(furan-2-carbonyl)-4-hydroxy-1-(2-morpholin-4-ylethyl)-2H-pyrrol-5-one]",> 300
13,O=C1NC(=O)N(CCc2ccc(F)cc2)C(=O)C1=CNCCCn1ccnc1 [(5E)-1-[2-(4-fluorophenyl)ethyl]-5-[(3-imidazol-1-ylpropylamino)methylene]barbituric acid],> 300
14,"CC1(C)CC(=O)C2=C(C1)OC(=N)C(C#N)C2c1ccc(OC(=O)N2CCOCC2)cc1 (stereo not drawn) [4-morpholinecarboxylic acid [4-(2-amino-3-cyano-7,7-dimethyl-5-oxo-6,8-dihydro-4H-1-benzopyran-4-yl)phenyl] ester]",> 300
15,CC1=NC(c2ccccc2)C(C#N)(C#N)C(C#N)(C#N)C1 (stereo not drawn) [SMR000037705],2.46
16,CN(C)CCCNC=C1C(=O)NC(=O)N(CCc2ccc(F)cc2)C1=O [(5E)-5-[[3-(dimethylamino)propylamino]methylene]-1-[2-(4-fluorophenyl)ethyl]barbituric acid],> 300
17,NC(=O)c1ccccc1N=CCC(=O)c1ccc(F)cc1 [2-[[(E)-3-(4-fluorophenyl)-3-keto-prop-1-enyl]amino]benzamide],> 300
18,COc1ccc(C(C)N=Nc2nc3ccccc3nc2C)cc1OC (stereo not drawn) [MLS001029936],66.5
19,"N#CC1=C2CCOCC2C(c2cccnc2)C(C#N)(C#N)C1=N (stereo not drawn) [6-Amino-8-pyridin-3-yl-8,8a-dihydro-1H,3H-isochromene-5,7,7-tricarbonitrile]",> 300
20,"CCn1nc(C)c(C=C2CCCC3=C2OC(=N)C(C#N)C3c2c(C)nn(CC)c2C)c1C (stereo not drawn) [(8E)-2-amino-4-(1-ethyl-3,5-dimethyl-1H-pyrazol-4-yl)-8-[(1-ethyl-3,5-dimethyl-1H-pyrazol-4-yl)methylene]-5,6,7,8-tetrahydro-4H-chromene-3-carbonitrile]",51.8
21,"Cc1c(NC=C2C(=O)NC(=O)N(Cc3ccccc3)C2=O)c(=O)n(-c2ccccc2)n1C [(5E)-1-benzyl-5-[[(1,5-dimethyl-3-oxo-2-phenylpyrazol-4-yl)amino]methylidene]-1,3-diazinane-2,4,6-trione]",> 300
22,Brc1ccc(C2=Nc3ncnn3C(c3ccco3)C2)cc1 (stereo not drawn),18.1
23,COc1cc2c(cc1C1C3=C(CC(C)(C)CC3=O)OC(=N)C1C#N)OCO2 (stereo not drawn) [MLS001208406],> 300
24,Cc1[nH]n(C(N)=S)c(=O)c1N=Nc1c(Cl)cc([N+](=O)[O-])cc1Cl [SMR000514008],85.9

row,SMILES,EC50 [µM]
1,Cc1ccccc1NN=C1C(=O)N(C)c2ccccc21 [MLS001203477],> 300
2,Cc1ccc(N/N=C2/C(=O)Nc3ccc(F)cc32)cc1 [5-fluoro-3-[2-(4-methylphenyl)hydrazono]indolin-2-one],> 300
3,O=C1NC(=O)N(c2ccc(F)cc2)C(=O)C1=Cc1c[nH]c2ccccc12 [SMR000556295],> 300
4,"COc1ccc(C(=O)CC2=NCC3c4ccccc4CCN3C2=O)cc1 (stereo not drawn) [(3Z)-3-[2-(4-methoxyphenyl)-2-oxidanylidene-ethylidene]-2,6,7,11b-tetrahydro-1H-pyrazino[2,1-a]isoquinolin-4-one]",> 300
5,"COc1ccc(C2C(C(=O)c3ccco3)C(=O)C(=O)N2c2nnc(C)s2)cc1OC (stereo not drawn) [2-(3,4-dimethoxyphenyl)-3-(furan-2-carbonyl)-4-hydroxy-1-(5-methyl-1,3,4-thiadiazol-2-yl)-2H-pyrrol-5-one]",297
6,"CCCCCCN1C(=O)NC(=O)C(=CNCCCn2ccnc2)C1=O [(5E)-1-hexyl-5-[[3-(1-imidazolyl)propylamino]methylidene]-1,3-diazinane-2,4,6-trione]",> 300
7,"C=CC1=C(C(=O)O)N2C(=O)[C@@H](NC(=O)C(N=O)c3csc(N)n3)[C@H]2SC1 (stereo partly drawn) [(6R,7R)-7-[[2-(2-azanyl-1,3-thiazol-4-yl)-2-hydroxyimino-ethanoyl]amino]-3-ethenyl-8-oxidanylidene-5-thia-1-azabicyclo[4.2.0]oct-2-ene-2-carboxylic acid]",33.3
8,CCN(CC)CCNC=C1C(=O)NC(=O)N(Cc2ccccc2)C1=O [(5Z)-1-benzyl-5-[[2-(diethylamino)ethylamino]methylene]barbituric acid],> 300
9,Cc1[nH]n(C(N)=S)c(=O)c1N=Nc1ccc(S(N)(=O)=O)cc1 [3-methyl-5-oxidanylidene-4-[(4-sulfamoylphenyl)diazenyl]-4H-pyrazole-1-carbothioamide],8.86
10,Cc1cc(C)cc(N2C(=O)NC(=O)C(=Cc3cccn3-c3ccc(Cl)cc3)C2=O)c1 [MLS000545741],136
11,"O=C1CC(=O)c2c(O)cc(O)c(O)c2C1=O [4,5,7,8-tetrahydroxy-1,2-naphthoquinone]",0.899
12,"COc1cccc(C=NNC(=O)c2ccc(=O)[nH]n2)c1O [N'-[(E)-(5-methoxy-6-oxocyclohexa-2,4-dien-1-ylidene)methyl]-6-oxo-1H-pyridazine-3-carbohydrazide]",12.6
13,"CC(C)c1nnc(N2C(=O)C(=O)C(C(=O)c3cccs3)C2c2ccccc2)s1 (stereo not drawn) [3-hydroxy-1-(5-isopropyl-1,3,4-thiadiazol-2-yl)-5-phenyl-4-(2-thenoyl)-3-pyrrolin-2-one]",4.38
14,"N#CC1C(=N)C2=C(N3CCCCC3)CCCC2C1(C#N)C#N (stereo not drawn) [3-Amino-4-piperidin-1-yl-5,6,7,7a-tetrahydro-indene-1,1,2-tricarbonitrile]",77.1
15,"COc1ccc(C2C3=C(CC(C)CC3=O)OC(=N)C2C#N)c(OC)c1OC (stereo not drawn) [2-amino-5-keto-7-methyl-4-(2,3,4-trimethoxyphenyl)-4,6,7,8-tetrahydrochromene-3-carbonitrile]",> 300
16,"O=CC(C=Nc1ccccn1)c1nc2cc(Cl)ccc2o1 (stereo not drawn) [(Z)-2-(5-chloranyl-1,3-benzoxazol-2-yl)-3-(pyridin-2-ylamino)prop-2-enal]",36.4
17,"N#CC1C(=N)OC2=C(C(=O)CC(c3ccco3)C2)C1c1ccc(OCc2c(F)cccc2Cl)cc1 (stereo not drawn) [2-azanyl-4-[4-[(2-chloranyl-6-fluoranyl-phenyl)methoxy]phenyl]-7-(furan-2-yl)-5-oxidanylidene-4,6,7,8-tetrahydrochromene-3-carbonitrile]",> 300
18,CC(=O)Nc1ccc(N=CCC(=O)c2ccc(C)o2)cc1 [MLS000089004],> 300
19,"Cc1cc(C=C2C(=O)NC(=O)N(c3ccc(Cl)cc3)C2=O)c(C)n1C [(5E)-1-(4-chlorophenyl)-5-[(1,2,5-trimethyl-3-pyrrolyl)methylidene]-1,3-diazinane-2,4,6-trione]",47.7
20,"CC1=C(C#N)C(=O)N(C)C(=O)C1=CN [(5Z)-5-(aminomethylidene)-1,4-dimethyl-2,6-dioxopyridine-3-carbonitrile]",> 300
21,"Cc1nnc(N2C(=O)C(=O)C(C(=O)c3ccco3)C2c2cccc3ccccc23)s1 (stereo not drawn) [3-(furan-2-carbonyl)-4-hydroxy-1-(5-methyl-1,3,4-thiadiazol-2-yl)-2-naphthalen-1-yl-2H-pyrrol-5-one]",> 300
22,"CC(=O)C1C(c2ccccc2)=NC(=O)NC1c1ccc(O)c(O)c1 (stereo not drawn) [4-[3,4-bis(oxidanyl)phenyl]-5-ethanoyl-6-phenyl-3,4-dihydro-1H-pyrimidin-2-one]",43.4
23,"COc1cccc(CN=Nc2ncnc(N)c2[N+](=O)[O-])c1OC [(6-amino-5-nitro-pyrimidin-4-yl)-[(2,3-dimethoxybenzylidene)amino]amine]",> 300
24,COc1ccc(CCN2C(=O)NC(=O)C(=CNc3ccc(NC(C)=O)cc3)C2=O)cc1OC [MLS000332913],> 300

# Source: BindingDB's records for doi:10.7270/Q2D798VP (Broad Institute, 2009)
